Literature values in patent publication US20150320677A1, “EFFERVESCENT TABLET FORMULATIONS OF DAPOXETINE AND A PDE5 INHIBITOR” (Sanovel Ilac Sanayi Ve Ticaret Anonim Sirketi, priority 2012, published 2015).

Experiments:
[1] = following oral administration
[2] = in vivo, po

Compound	onset of action takes (second sentence of b41) [1]	binding to plasma proteins [2]
CN1CC(=O)N2[C@H](c3ccc4c(c3)OCO4)c3[nH]c4ccccc4c3C[C@@H]2C1=O [tadalafil, (6R-trans)-6-(1,3-benzodioxol-5-yl)-2,3,6,7,12,12a-hexahydro-2-methyl-pyrazino[1′,2′:1,6]pyrido[3,4-b]indole-1,4-dione]	up to 36 hours	–
Dapoxetine	–	almost completely binding to plasma proteins
